How the values were obtained:
Pythium [1] = assay: microbe, parasite or virus in culture; format: functional; conditions: read-out: GI
Description: Fungitoxic activity against Pythium sp. assessed as mycelial growth inhibition at 100 ppm after 4 to 5 days by agar dilution method

Pythium [2] = assay: Fungitoxic activity against Pythium sp. assessed as mycelial growth inhibition at 10 ppm after 4 to 5 days by agar dilution method; conditions: read-out: GI
[3] = test system: Brassica rapa subsp. chinensis; assay: whole plant or invertebrate; format: functional; conditions: 72 h, read-out: GI
Description: Phytotoxicity against Brassica rapa subsp. chinensis assessed as growth inhibition of hypocotyl at 100 ppm treated to seeds after 3 days

Athelia rolfsii [4] = assay: microbe, parasite or virus in culture; format: functional; conditions: Agroathelia rolfsii, read-out: GI
Description: Fungitoxic activity against Athelia rolfsii assessed as mycelial growth inhibition at 100 ppm after 4 to 5 days by agar dilution method

Athelia rolfsii [5] = assay: Fungitoxic activity against Athelia rolfsii assessed as mycelial growth inhibition at 10 ppm after 4 to 5 days by agar dilution method; format: functional; conditions: Agroathelia rolfsii; read-out: GI
[6] = test system: Brassica rapa subsp. chinensis; assay: whole plant or invertebrate; format: functional; conditions: 72 h, read-out: GI; remark: listed apart in the source
Description: Phytotoxicity against Brassica rapa subsp. chinensis assessed as growth inhibition of radicle at 100 ppm treated to seeds after 3 days

SMILES	inhibition of growth at 100 ppm (Pythium [1]) [%]	inhibition of growth at 10 ppm (Pythium [2]) [%]	inhibition of growth at 100 ppm [3] [%]	inhibition of growth at 100 ppm (Athelia rolfsii [4]) [%]	inhibition of growth at 10 ppm (Athelia rolfsii [5]) [%]	inhibition of growth at 100 ppm [6] [%]
CC(C)c1ccc(/C=C/C(=O)OCCc2ccccc2)cc1 [PHENETHYL 3-(4-ISOPROPYLPHENYL)ACRYLATE]	49	13	36	70	10	0
CCCNC(=O)/C=C/c1ccc(C(C)C)cc1	84	41	30	88	28	52
CC(C)=CCCC(C)CCOC(=O)/C=C/c1ccc(C(C)C)cc1 (stereo unspecified) [3,7-DIMETHYLOCT-6-ENYL 3-(4-ISOPROPYLPHENYL)ACRYLATE]	69	12	39	87	9	0
CCOC(=O)/C=C/c1ccc(C(C)C)cc1 [ETHYL 3-(4-ISOPROPYLPHENYL)ACRYLATE]	92	14	44	78	24	0
CCCCNC(=O)/C=C/c1ccc(C(C)C)cc1 [N-BUTYL-3-(4-ISOPROPYLPHENYL)ACRYLAMIDE]	90	37	41	92	28	51
CCCCNC(=O)/C=C/c1ccc(Cl)cc1 [N-BUTYL-3-(4-CHLOROPHENYL)ACRYLAMIDE]	80	45	44	93	58	62
COC(=O)/C=C/c1ccc(Cl)cc1Cl [METHYL 3-(2,4-DICHLOROPHENYL)ACRYLATE]	68	39	66	75	43	84
CCCOC(=O)/C=C/c1ccc(C(C)C)cc1 [PROPYL 3-(4-ISOPROPYLPHENYL)ACRYLATE]	68	13	8	89	43	5
CCc1cccc(NC(=O)/C=C/c2ccccc2)c1	74	31	2	53	35	66
CC(C)NC(=O)/C=C/c1ccc(C(C)C)cc1 [N-ISOPROPYL-3-(4-ISOPROPYLPHENYL)ACRYLAMIDE]	62	40	50	80	40	62
CC(C)OC(=O)/C=C/c1ccccc1 [ISOPROPYL CINNAMATE]	82	5	2	86	41	2
CC(C)=CCC/C(C)=C/COC(=O)/C=C/c1ccc(Cl)cc1	86	9	41	94	17	48
CCCOC(=O)/C=C/c1ccc(Cl)cc1 [PROPYL 3-(4-CHLOROPHENYL)ACRYLATE]	87	8	40	97	41	78
CC(C)CNC(=O)/C=C/c1ccccc1 [N-ISOBUTYLCINNAMAMIDE]	74	23	34	82	29	78
C=CCc1ccc(OC(=O)/C=C/c2ccc(Cl)cc2)c(OC)c1 [4-ALLYL-2-METHOXYPHENYL 3-(4-CHLOROPHENYL)ACRYLATE]	89	8	38	89	14	49
O=C(/C=C/c1ccc(Cl)cc1Cl)OCCc1ccccc1 [PHENETHYL 3-(2,4-DICHLOROPHENYL)ACRYLATE]	63	21	32	79	0	0

— ChEMBL document CHEMBL3046649, “Fungitoxic and Phytotoxic Activities of Cinnamic Acid Esters and Amides” (2000)
